The results in this text go back to patent US5036059A, “1,4-Dihydropyridine-3-carboxylate derivatives” (Nippon Shinyaku Company, Limited, priority 1984, dated 1991).

Test [1] deals with rats (with normal blood pressure). Put plainly: Hypotensive action, mean blood pressure of femoral artery in unanesthetized normotensive rats, oral. The format is in vivo. As to conditions: Rattus norvegicus, read-out: % Decreases in Mean Blood Pressure [at peak effect]; for inhibition in vivo at 1 mg/kg: 1 mg/kg oral; for inhibition in vivo at 3 mg/kg: 3 mg/kg oral; for inhibition in vivo at 10 mg/kg: 10 mg/kg oral. Here is the method: Blood pressure of femoral artery of rats (with normal blood pressure) under unanesthetized condition was measured directly using a pressure tranducer.
The present invention compounds were given orally at doses of 1, 3 and 10 mg/kg, and changes in blood pressure were continuously recorded. Percent decreases of mean blood pressure at the peak effect were calculated. The maximum changes in mean blood pressure (%) were shown as "hypotensive action" (Table 2).
Hypotensive action of diltiazem (which is a known hypotensive drug) measured by the same method at the doses of 3, 10 and 30 mg/kg were 0, 11.2 and 33.0%, respectively. Hypotensive action of the compound of Example 4 which is one of the most representative compounds of this invention was tested using spontaneously hypertensive rats and was compared with those of Nifedipine and Diltiazem hydrochloride. The method applied was that the drugs were orally given to the rats of which systolic arterial blood pressure were higher than 180 mmHg when it was measured plethysmographically using tail arteries. (Table 3)

The test system of a further test is guinea pig heart. Put plainly: Coronary vasodilating action, constant pressure perfusion of isolated guinea pig heart (Langendorff). As to conditions: Cavia porcellus, via coronary artery, read-out: Perfusion Increasing Rate; for activation at 0.001 mg: 10^-6 gram/heart; for activation at 0.0001 mg: 10^-7 gram/heart. Here is the method:
Constant pressure perfusion samples of guinea pig heart isolated by a method according to Langendorff were treated with the present invention compounds by administration via coronary artery and the effect was examined (Table 1).
With reference to coronary vasodilating action of diltiazem measured by the same method, the increasing rates in perfusion by administration of 10^-7, 10^-6 and 10^-5 gram/heart were 4, 16 and 55%, respectively.

As for `CC1=C(C(=O)OCCN(C)Cc2ccccc2)C(c2cccc([N+](=O)[O-])c2)C(P2(=O)OCCCO2)=C(C)N1` (stereo not drawn) [Example 2, 2-(N-benzyl-N-methylamino)ethyl 2,6-dimethyl-4-(3-nitrophenyl)-5-(2-oxo-1,3,2-dioxaphosphorinan-2-yl)-1,4-dihydropyridine-3-carboxylate], in test [1], the inhibition in vivo at 1 mg/kg amounted to 18.4%, the inhibition in vivo at 3 mg/kg was found to be 39.2% and the inhibition in vivo at 10 mg/kg is 50.1%.

With `CCOC(=O)C1=C(C)NC(C)=C(P2(=O)OCCCO2)C1c1ccccc1[N+](=O)[O-]` (stereo not drawn) [Example 5, Ethyl 2,6-dimethyl-4-(2-nitrophenyl)-5-(2-oxo-1,3,2-dioxaphosphorinan-2-yl)-1,4-dihydropyridine-3-carboxylate], in test [1], the inhibition in vivo at 1 mg/kg stood at 39.7%, the inhibition in vivo at 3 mg/kg amounted to 43.3% and the inhibition in vivo at 10 mg/kg came out at 46.2%.

Take `CC1=C(C(=O)OC(C)C)C(c2ccccc2[N+](=O)[O-])C(P2(=O)OCCCO2)=C(C)N1` (stereo not drawn) [Example 6, Isopropyl 2,6-dimethyl-4-(2-nitrophenyl)-5-(2-oxo-1,3,2-dioxaphosphorinan-2-yl)-1,4-dihydropyridine-3-carboxylate]: in the test with guinea pig heart, the activation at 0.001 mg was 52% and the activation at 0.0001 mg was 10%.

`COC(=O)C1=C(C)NC(C)=C(P2(=O)OCC(C)(C)CO2)C1c1cccc([N+](=O)[O-])c1` (stereo not drawn) [Example 7, Methyl 2,6-dimethyl-5-(5,5-dimethyl-2-oxo-1,3,2-dioxaphosphorinan-2-yl)-4-(3-nitrophenyl)-1,4-dihydropyridine-3-carboxylate]: in test [1], the inhibition in vivo at 1 mg/kg stood at 12.7%, the inhibition in vivo at 3 mg/kg was 18.4% and the inhibition in vivo at 10 mg/kg stood at 31.4%.

Regarding `CC1=C(C(=O)OCCN(C)Cc2ccccc2)C(c2cccc([N+](=O)[O-])c2)C(P2(=O)OCC(C)(C)CO2)=C(C)N1` (stereo not drawn) [Example 9, 2-(N-Benzyl-N-methylamino)-ethyl 2,6-dimethyl-5-(5,5-dimethyl-2-oxo-1,3,2-dioxaphosphorinan-2-yl)-4-(3-nitrophenyl)-1,4-dihydropyridine-3-carboxylate], in test [1], the inhibition in vivo at 1 mg/kg stood at 12.7%, the inhibition in vivo at 3 mg/kg is 12.9% and the inhibition in vivo at 10 mg/kg was determined as 40.4%.

In the case of `CC1=C(C(=O)OCCN(C)C)C(c2cccc([N+](=O)[O-])c2)C(P2(=O)OCC(C)(C)CO2)=C(C)N1` (stereo not drawn) [Example 10, 2-(N,N-Dimethylamino)ethyl 2,6-dimethyl-5-(5,5-dimethyl-2-oxo-1,3,2-dioxaphosphorinan-2-yl)-4-(3-nitrophenyl)-1,4-dihydropyridine-3-carboxylate], in the test with guinea pig heart, the activation at 0.001 mg stood at 22% and the activation at 0.0001 mg came to 12%.

Regarding `CCCOCCOC(=O)C1=C(C)NC(C)=C(P2(=O)OCC(C)(C)CO2)C1c1cccc([N+](=O)[O-])c1` (stereo not drawn) [Example 11, 2-n-Propoxyethyl 2,6-dimethyl-5-(5,5-dimethyl-2-oxo-1,3,2-dioxaphosphorinan-2-yl)-4-(3-nitrophenyl)-1,4-dihydropyridine-3-carboxylate], in the test with guinea pig heart, the activation at 0.001 mg stood at 53% and the activation at 0.0001 mg was 11%.

As for `CC1=C(C(=O)OCCOCc2ccccc2)C(c2cccc([N+](=O)[O-])c2)C(P2(=O)OCC(C)(C)CO2)=C(C)N1` (stereo not drawn) [Example 12, 2-Benzyloxyethyl 2,6-dimethyl-5-(5,5-dimethyl-2-oxo-1,3,2-dioxaphosphorinan-2-yl)-4-(3-nitrophenyl)-1,4-dihydropyridine-3-carboxylate], in the test with guinea pig heart, the activation at 0.001 mg turned out to be 67% and the activation at 0.0001 mg amounted to 14%.

On to `COC(=O)C1=C(C)NC(C)=C(P2(=O)OC(C)CC(C)O2)C1c1ccccc1[N+](=O)[O-]` (stereo not drawn) [Example 18, Methyl 2,6-dimethyl-5-(4,6-dimethyl-2-oxo-1,3,2-dioxaphosphorinan-2-yl)-4-(2-nitrophenyl)-1,4-dihydropyridine-3-carboxylate], for which, in test [1], the inhibition in vivo at 1 mg/kg came out at 15.7%, the inhibition in vivo at 3 mg/kg is 42.7% and the inhibition in vivo at 10 mg/kg was determined as 45.5%.

Take `CC1=C(C(=O)OCCN(C)Cc2ccccc2)C(c2cccc([N+](=O)[O-])c2)C(P2(=O)O[C@H](C)C[C@@H](C)O2)=C(C)N1` (stereo partly drawn) [Example 20, 2-(N-Benzyl-N-methylamino)-ethyl 2,6-dimethyl-5-[4(R),6(R)-dimethyl-2-oxo-1,3,2-dioxaphosphorinan-2-yl]-4-(3-nitrophenyl)-1,4-dihydropyridine-3-carboxylate]: in the test with guinea pig heart, the activation at 0.001 mg is 32% and the activation at 0.0001 mg was determined as 10%.

With `CCC1(CC)COP(=O)(C2=C(C)NC(C)=C(C(=O)OC)C2c2ccccc2[N+](=O)[O-])OC1` (stereo not drawn) [Example 24, Methyl 5-(5,5-diethyl-2-oxo-1,3,2-dioxaphosphorinan-2-yl)-2,6-dimethyl-4-(2-nitrophenyl)-1,4-dihydropyridine-3-carboxylate], in the test on guinea pig heart, the activation at 0.001 mg came to 41% and the activation at 0.0001 mg came out at 12%.

As to `COC(=O)C1=C(C)NC(C)=C(P2(=O)OCC(C)CO2)C1c1cccc([N+](=O)[O-])c1` (stereo not drawn) [Example 26], in test [1], the inhibition in vivo at 1 mg/kg is 28.7%, the inhibition in vivo at 3 mg/kg came out at 37.1% and the inhibition in vivo at 10 mg/kg was 43.8%.

With `CCC1COP(=O)(C2=C(C)NC(C)=C(C(=O)OC)C2c2cccc([N+](=O)[O-])c2)OC1` (stereo not drawn) [Example 28, Methyl 5-(5-ethyl-Z-oxo-1,3,2-dioxaphosphorinan-2-yl)-2,6-dimethyl-4-(3-nitrophenyl)-1,4-dihydropyridine-3-carboxylate], in test [1], the inhibition in vivo at 1 mg/kg amounted to 16.5%, the inhibition in vivo at 3 mg/kg worked out at 26.6% and the inhibition in vivo at 10 mg/kg came out at 33.9%.

For `CCOC(=O)C1=C(C)NC(C)=C(P2(=O)OCCCO2)C1c1ccccc1C(F)(F)F` (stereo not drawn) [Example 51, Ethyl 2,6-dimethyl-5-(2-oxo-1,3,2-dioxaphosphorinan-2-yl)-4-(2-trifluoromethylphenyl)-1,4-dihydropyridine-3-carboxylate], in test [1], the inhibition in vivo at 1 mg/kg is 21.1%, the inhibition in vivo at 3 mg/kg was determined as 43% and the inhibition in vivo at 10 mg/kg came to 45.4%.

As to `CC1=C(C(=O)OCCN(C)Cc2ccccc2)C(c2ccccc2OC(F)F)C(P2(=O)OCC(C)(C)CO2)=C(C)N1` (stereo not drawn) [Example 64, 2-(N-Benzyl-N-methylamino)-ethyl 4-(2-difluoromethoxyphenyl)-2,6-dimethyl-5-(5,5-dimethyl-2-oxo-1,3,2-dioxaphosphorinan-2-yl)-1,4-dihydropyridine-3-carboxylate], in test [1], the inhibition in vivo at 1 mg/kg was found to be 6.9%, the inhibition in vivo at 3 mg/kg amounted to 16.5% and the inhibition in vivo at 10 mg/kg was 41.5%.

For `CC1=C(C(=O)OCC2CC2)C(c2ccccc2[N+](=O)[O-])C(P2(=O)OCCCO2)=C(C)N1` (stereo not drawn) [Example 68, Cyclopropylmethyl 2,6-dimethyl-4-(2-nitrophenyl)-5-(2-oxo-1,3,2-dioxaphosphorinan-2-yl)-1,4-dihydropyridine-3-carboxylate], in test [1], the inhibition in vivo at 1 mg/kg worked out at 13%, the inhibition in vivo at 3 mg/kg worked out at 41.7% and the inhibition in vivo at 10 mg/kg amounted to 45.8%.

On to `CC(=O)COC(=O)C1=C(C)NC(C)=C(P2(=O)OCCCO2)C1c1ccccc1C(F)(F)F` (stereo not drawn) [Example 76, 2-Oxopropyl 2,6-dimethyl-5-(2-oxo-1,3,2-dioxaphosphorinan-2-yl)-4-(2-trifluoromethylphenyl)-1,4-dihydropyridine-3-carboxylate], for which, in test [1], the inhibition in vivo at 1 mg/kg turned out to be 10.5%, the inhibition in vivo at 3 mg/kg was determined as 35% and the inhibition in vivo at 10 mg/kg amounted to 40.2%.
